Experimental data from patent US20040209915A1, “Library of biphenyl derivatives” (priority 2003, published 2004).

Tests used:
[1] = target: T1, human β2 adrenergic receptor (Homo sapiens, UniProt P07550); assay: Whole-cell cAMP Flashplate assay in CHO cell lines heterologously expressing human β2 adrenergic receptor; type: cell-based; details: CHO-K1 cells
T1 construct: expressed in transfected cells
Method: Cells were rinsed with PBS and detached in dPBS (Dulbecco's Phosphate Buffered Saline, without CaCl2 and MgCl2) containing 2 mM EDTA or Trypsin-EDTA solution (0.05% trypsin/0.53 mM EDTA). […] About 60,000 to 80,000 cells per well were used in this assay. Test compounds (10 mM in DMSO) were diluted into PBS containing 0.1% BSA in Beckman Biomek-2000 and tested at 11 different concentrations ranging from 100 μM to 1 pM.

[2] = target: T2, M3 muscarinic receptor (Homo sapiens, UniProt P20309); assay: Radioligand binding assay for muscarinic receptors; details: displacement of [3H]-NMS, CHO cell membranes
T2 construct: expressed in transfected cells
T2 sequence (P20309 whole entry): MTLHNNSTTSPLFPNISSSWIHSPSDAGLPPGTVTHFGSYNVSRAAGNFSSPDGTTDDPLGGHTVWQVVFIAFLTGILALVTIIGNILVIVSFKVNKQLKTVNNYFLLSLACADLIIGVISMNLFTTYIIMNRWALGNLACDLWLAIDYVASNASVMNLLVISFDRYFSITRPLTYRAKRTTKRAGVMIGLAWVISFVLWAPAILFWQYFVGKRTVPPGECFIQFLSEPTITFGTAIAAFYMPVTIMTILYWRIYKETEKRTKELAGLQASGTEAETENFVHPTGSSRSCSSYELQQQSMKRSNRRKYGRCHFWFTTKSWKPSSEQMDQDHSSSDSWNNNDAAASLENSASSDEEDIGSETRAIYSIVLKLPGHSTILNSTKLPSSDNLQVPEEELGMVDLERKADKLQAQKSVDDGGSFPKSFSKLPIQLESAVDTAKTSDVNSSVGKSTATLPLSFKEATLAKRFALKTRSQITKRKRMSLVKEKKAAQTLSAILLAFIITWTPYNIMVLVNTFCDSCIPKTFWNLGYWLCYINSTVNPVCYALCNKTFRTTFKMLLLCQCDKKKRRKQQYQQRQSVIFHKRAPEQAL
Method: CHO cell lines stably expressing cloned human hM1, hM2, hM3 and hM4 muscarinic receptor subtypes, respectively, were grown to near confluency in HAM's F-12 media supplemented with 10% FBS and 250 μg/mL Geneticin. The cells were grown in a 5% CO2, 37° C. incubator and lifted with 2 mM EDTA in dPBS. […] For membrane preparation, cell pellets were resuspended in lysis buffer and homogenized with a Polytron PT-2100 tissue disrupter (Kinematica AG; 20 seconds×2 bursts). Crude membranes were centrifuged at 40,000×g for 15 minutes at 4° C. The membrane pellet was then resuspended with resuspension buffer and homogenized again with the Polytron tissue disrupter.

[3] = target: T1, human β2 adrenergic receptor; assay: Radioligand binding assay for human β2 adrenergic receptor; details: displacement of [3H]-dihydroalprenolol, CHO cell membranes
[4] = target: T1, human β2 adrenergic receptor; assay: Whole-cell cAMP Flashplate assay with lung epithelial cell line (BEAS-2B) endogenously expressing human β2 adrenergic receptor; type: cell-based; details: BEAS-2B cells

T1 sequence (P07550 whole entry): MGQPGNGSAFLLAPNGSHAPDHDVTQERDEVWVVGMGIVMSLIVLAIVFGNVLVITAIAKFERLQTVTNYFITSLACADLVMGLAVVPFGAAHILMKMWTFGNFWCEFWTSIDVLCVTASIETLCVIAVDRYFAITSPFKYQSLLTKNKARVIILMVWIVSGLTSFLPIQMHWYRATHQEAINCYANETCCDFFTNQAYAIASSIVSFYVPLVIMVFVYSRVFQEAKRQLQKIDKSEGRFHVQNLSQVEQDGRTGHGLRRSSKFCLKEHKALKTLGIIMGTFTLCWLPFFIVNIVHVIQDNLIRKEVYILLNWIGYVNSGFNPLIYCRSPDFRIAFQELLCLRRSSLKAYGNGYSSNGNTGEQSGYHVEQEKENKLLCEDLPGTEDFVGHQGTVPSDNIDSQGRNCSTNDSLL

O=C(CCN1CCC(OC(=O)Nc2ccccc2-c2ccccc2)CC1)NCCCCCNC[C@H](O)c1ccc(O)c2[nH]c(=O)ccc12 [Example 6, Biphenyl-2-ylcarbamic Acid 1-(2-{5-[(R)-2-Hydroxy-2-(8-hydroxy-2-oxo-1,2-dihydroquinolin-5-yl)ethylamino]pentylcarbamoyl}ethyl)piperidin-4-yl Ester, Ditrifluoroacetate]
< 10 nM: EC50 [1] | Ki [2] | Ki [3] | EC50 [4]
